Test results as given in patent publication US20190152986A1, “CRYSTAL FORM A OF MILBEMYCIN A3 OXIME AND PREPARATION METHOD THEREOF” (Zhejiang Hisun Pharmaceutical Co., Ltd., priority 2016, published 2019).

Legend:
Type in all cases: physicochemical
[1] = Degradation stability test: original sample and overall comparison (HPLC content determination)
Source text: Meanwhile, the degradation stabilities of A3/A4 oxime and the crystal form A of A3 oxime were compared in the invention, and the degradation conditions are as follows:
(§1) The HPLC conditions for content determination are as follows: […]

[2] = Oxidative degradation (30% hydrogen peroxide, 24 hours)
Description: 1) Oxidative Degradation A sample of 50 mg was weighed accurately and added to a 100.0 ml volumetric flask, dissolved by adding 10 ml methanol, 1.0 ml of 30% hydrogen peroxide was added, standing for 24 hours, then was diluted to the scale with methanol.
as §1

[3] = Photodegradation (light box, 600 w/m^2, 24 hrs)
Description: According to the ICH requirement, the total illuminance requirement of 200 w·hr/m^2 and 1,200,000 lux·hr is required for photodegradation. If the illuminance is 600 w/m^2, the ICH requirement is met, and the illumination time needs at least 9 hrs.
Approximately 600 mg of the sample was weighed, placed evenly in a weighing bottle, placed into a light box with an illuminance of 600 w/m^2 and illuminated for 24 hrs, taken out, placed into a desiccator and cooled to room temperature, and the weight loss on drying was measured.
as §1

[4] = Protection from light (black PE bag and aluminum foil bag in light box, 18 hrs)
Description: About 600 mg of the sample was weighed, placed evenly in a weighing bottle, the weighing bottle containing the sample was put into a black PE bag, and then the PE bag was packaged with an aluminum foil bag, the aluminum foil bag was placed into a light box with an illuminance of 600 w/m^2. After illumination of 18 hrs, taken out, placed into a desiccator and cooled to room temperature, and the weight loss on drying was measured.
as §1

[5] = Oxidation: 30% hydrogen peroxide in methanol, standing for 24 hours
[6] = Illumination: 600 w/m^2 for 24 hrs
[7] = Protection from light: PE bag and aluminum foil bag, light box 600 w/m^2, 18 hrs

Question: Which Content ([1]; Original sample, HPLC) does the source give for `CC1=C[C@H]2C(=O)O[C@H]3C[C@@H](C/C=C(\C)C[C@@H](C)/C=C/C=C4\CO[C@H](/C1=N\O)[C@@]42O)O[C@@]1(CC[C@H](C)[C@@H](C)O1)C3` [crystal form A of A3 oxime, Milbemycin A3 oxime] here?
Answer: 98.1%

Question: What about the “Total Impurity” value ([1]; Original sample, HPLC) of the same compound?
Answer: 0.3215%

Question: What about the “stability (degradation stability test results)” value ([1]; overall comparison of Table 2) of the same compound?
Answer: significantly better than that of A3/A4 oxime

Question: And the “Total Impurity increment” value ([2]; Oxidation, versus original sample)?
Answer: −0.0847%

Question: And the Content [2, 5]?
Answer: 98.3%

Question: And the “Total Impurity” value [2, 5]?
Answer: 0.2368%

Question: And the “Total Impurity increment” value ([3]; Illumination, versus original sample)?
Answer: 1.2485%

Question: What about the Content [3, 6] of the same compound?
Answer: 96.8%

Question: What about the “Total Impurity” value [3, 6] of the same compound?
Answer: 1.57%

Question: What about the “Total Impurity increment” value ([4]; Protection from light, versus original sample) of the same compound?
Answer: 0.0156%

Question: And the Content [4, 7]?
Answer: 96.9%

Question: And the “Total Impurity” value [4, 7]?
Answer: 0.3371%
